Source: US20230364069A1, “METHOD FOR TREATING NON-ALCOHOLIC STEATOHEPATITIS THROUGH CO-ADMINISTRATION OF CURCUMIN DERIVATIVE AND TGF-B RECEPTOR INHIBITOR” (UNIVERSITY INDUSTRY FOUNDATION, YONSEI UNIVERSITY WONJU …, priority 2021, published 2023)

How the values were obtained:
[1] = tested on: mouse hepatocyte cell lines (AML12); assay: Fat accumulation induced by oleic acid (BODIPY staining, Western blotting); assay type: cell-based; details: 500 μM oleic acid, 24 hours; for fat increased by oleic acid (BODIPY staining, adipophilin and SREBP1C Western blotting): 1 μM Cur5-8, 10 μM EW-7197, FIGS. 6 and 7
Experimental: Fat accumulation was induced in hepatocytes with oleic acid, curcumin derivatives were administered, and fat synthesis and degradation were confirmed.
Specifically, oleic acid was dissolved in 0.2% bovine serum albumin (BSA) at a concentration of 500 μM, and the cells of Example 1-1 were cultured for 24 hours and treated with the resultant, and also treated with 1 μM curcumin (Cur), 1 μM curcumin 5-8 (Cur5-8), 1 μM curcumin 4-8 (Cur4-8), and 1 μM curcumin 5-14 (Cur5-14) for the same period of time. Thereafter, BODIPY-fatty acid solution (Sigma, 1 mg/mL of stock DMSO solution was diluted with PBS 1× to obtain a final concentration of 0.2 μg/mL) was administered to cells cultured in an incubator of 5% CO2 at 37° C. and cultured for one hour. After washing with PBS 1×, stained cells were observed.
In addition, the cells of Example 1-1 were treated with oleic acid in the same manner as described above and treated with 1 μM curcumin (Cur), 1 μM Curcumin 5-8 (Cur5-8), and 10 μM EW-7197 (EW), and then BODIPY-fatty acid staining was performed in the same manner as above. In addition, the cells were collected after treatment, and the protein expressions of adipophilin as a fat accumulation inducing factor and SREBP1C as a fat metabolism regulator in the collected cells were checked by Western blotting. To this end, Western blotting was performed by using the collected cells in the same method as described in <Example 1-3>. At this time, an anti-β-actin antibody, an anti-adipophilin antibody, and an anti-SREBP1C antibody were used as primary antibodies.
The mouse hepatocyte cell lines were treated with oleic acid by the method described in Example 1-4 and were simultaneously treated with each of curcumin (Cur) and curcumin derivatives (Cur5-8, Cur4-8, and Cur5-14) for 24 hours, and fat was stained by BODIPY staining method. […]

[2] = tested on: LX-2 cells (human hepatic stellate cell lines); assay: Fibrosis markers by Western blotting after TGF-β induction, TGF-β receptor inhibitor; assay type: cell-based; details: 2 ng/ml TGF-β, 10 μM EW-7197, 24 hours, FIG. 3
Experimental: Cell experiments were performed by using AML12, […], and LX-2 cells, a human hepatic stellate cell.
LX-2 cells were cultured in a culture medium made by adding 1% penicillin streptomycin (anti-anti) and 10% fetal bovine serum (FBS) to a DMEM medium containing high glucose (4500 mg/L D-glucose, L-glutamine, 110 mg/L sodium pyruvate, sodium bicarbonate).
Fibrosis was induced in hepatocytes with TGF-β, a TGF-β receptor inhibitor was administered, and fibrosis was checked.
Specifically, 2 ng/ml of TGF-β was administered to the cells of Example 1-1, and administered or not administered with 10 μM EW-7197 (EW), and cultured for 24 hours. The control group (Con) was not treated with either TGF-β or the sample. […] A protein concentration was measured by BCA assay (Pierce Biotechnology Inc). […] Then, the membranes were washed, briefly incubated with Pico Enhanced Peroxidase Detection (EPD) Western reagent (ELPISBIOTECH. INC.) according to the manufacturer's procedure, and quantified by using an image analyzer (ImageQuant™ LAS 500, GE Healthcare Bio-Sciences AB, Uppsala, Sweden). β-actin was used as an internal control. Densitometry of protein intensity was quantified by using ImageJ (National Institutes of Health). […]

[3] = tested on: renal fibrosis model; details: unilateral ureteral obstruction (UUO); previous studies; cited from earlier work
[4] = tested on: liver fibrosis model; details: carbon tetrachloride (CCL4) administration and bile duct ligation; previous studies; cited from earlier work

**Q.** For `COc1cc(/C=C/C(=O)c2cccc(NC(=O)C(C)C)c2)ccc1O` [Cur5-8, N-{3-[(2E)-3-(4-hydroxy-3-methoxyphenyl)prop-2-enoyl]phenyl}-2-methylpropanamide], which “fat increased by oleic acid (BODIPY staining)” value ([1]; 1 μM compound, FIGS. 4 and 5) is on record?
**A.** Its value is “most effectively reduced fat”.

**Q.** And the “fat increased by oleic acid (BODIPY staining, adipophilin and SREBP1C Western blotting)” value [1]?
**A.** Its value is “reduced the fat increased by oleic acid”.

**Q.** Which “protein expressions of α-SMA, Coll, p-SMAD2, and p-SMAD3 increased by TGF-β” value [2] does the source give for `Cc1cccc(-c2[nH]c(CNc3ccccc3F)nc2-c2ccc3ncnn3c2)n1` [EW-7197, N-(2-fluorophenyl)-5-(6-methyl-2-pyridinyl)-4-[1,2,4]triazolo[1,5-a]pyridin-6-yl-1H-imidazole-2-methanamine] here?
**A.** Its value is “inhibited”.

**Q.** What about the “fat increased by oleic acid (BODIPY staining, adipophilin and SREBP1C Western blotting)” value [1] of the same molecule?
**A.** The value was “promotes the fat increase caused by oleic acid”.

**Q.** And the “tissue fibrosis (renal)” value [3]?
**A.** The value was “suppressing tissue fibrosis”.

**Q.** And the liver damage [4]?
**A.** The liver damage was “suppressing liver damage”.
